# Measured values as given in PubChem BioAssay AID1918994 (Molecular Pharmacology Branch, DTP, NCI, 2023).
# Test system: 292921-168-R-J2-PDC complex spheroid growth
# Assay: Anticancer human tumor 292921-168-R-J2-PDC patient-derived pancreatic carcinoma cell line growth inhibition [AhR]
# Settings: for IC50: curve of first compound; for viability, T/C: stronger effect = lower value
# Excerpt: Multicellular complex tumor spheroid response to aryl hydrocarbon receptor antagonists in combination with a variety of drugs and investigational agents in selected tumor cell lines
# The current study was undertaken to assess response to aryl hydrocarbon receptor antagonists in combination with standard-of-care drugs and investigational agents in solid tumor complex spheroid models. Complex spheroids include a stromal component modeled by human endothelial cells (HUVEC) and fibroblasts modeled by human mesenchymal stem cells (MSCs). The concentration ranges selected for each drug and investigational agent were based upon clinically achievable concentrations if the clinical Cmax of the agent was known.
# Compounds. The drugs and investigational agents: BAY 2416964 (NSC825713), GNF351 (NSC835774), CH-223191 (NSC835775), CPI-455 (NSC825282), aza-TdCyd (NSC777586), decitabine (NSC127716), belinostat (NSC758774), entinostat (NSC756642), pevonedistat (NSC761192), tazemetostat (NSC777109), talazoparib (NSC765396), olaparib (NSC753686), selinexor (NSC780203), nedisertib (M3814, NSC802822), bortezomib (NSC756655), venetoclax (NSC766270), doxorubicin (NSC123127), elimusertib (BAY189344, NSC800525), ceralasertib (AZD6738, NSC777638), TAK-243 (NSC785004), alisertib (NSC759677), etoposide (NSC141540), topotecan (NSC609699), eribulin (NSC707389), gemcitabine (NSC613327), carboplatin (NSC241240), cisplatin (NSC119875), and SN-38 (NSC673596) were obtained from the National Cancer Institute (NCI) Developmental Therapeutics Program Chemical Repository (32). The FDA-approved anticancer drug set is available from the Developmental Therapeutics Program at https://dtp.cancer.gov/organization/dscb/obtaining/available plates.htm. […] The stock solutions were prepared in dimethyl sulfoxide (DMSO, Sigma-Aldrich, St. Louis, MO, cat. D2650), except for the platinum compounds which were prepared in saline (Quality Biological, Gaithersburg, MD, cat. 114-055-101), at 800-fold the tested concentration and stored at -70 degrees C prior to their use. All drugs and investigational agents were tested over a range starting from a high concentration at or near the clinical Cmax and decreasing in half-log increments. If the clinical Cmax for an agent had not been determined, the highest concentration tested was 10 microM (Table 1).
# Cell Culture. All cells were maintained in an incubator at 37 degrees C and 5% CO2 with 95% humidity. The PDC lines were cultured according to standard operating procedures established by the NCI PDMR (https://pdmr.cancer.gov). Briefly, all PDCs were thawed and cultured in Matrigel-coated flasks prepared with a working solution of 1X Ham's F-12 nutrient mix, without supplementation (Invitrogen, Waltham, MA, cat. 11765054), 100 U/mL penicillin-streptomycin (Invitrogen, cat. 15140122), and 2.5% Matrigel (Corning Inc., Corning, NY, cat. 354248) for the first three passages. All PDCs were cultured in complete DMEM/F-12 media containing advanced DMEM/F-12 (Invitrogen, cat. 12634028), 4.9% defined fetal bovine serum, heat inactivated (HyClone Laboratories Inc., Logan, UT, cat. SH30070.03HI), 389 ng/mL hydrocortisone (Sigma-Aldrich, cat. H4001), 9.7 ng/mL human EGF recombinant protein (Invitrogen, cat. PHG0313), 23.4 microg/mL adenine (Sigma-Aldrich, cat. A2786), 97.3 U/mL penicillin-streptomycin (Invitrogen, cat. 15140122), 1.9 mM L-glutamine (Invitrogen, cat. 25030081), and 9.7 microM Y-27632 dihydrochloride (Tocris Bioscience, Bristol, United Kingdom, cat. 1254). The PDCs were cultured in complete DMEM/F12 media without 10 microM Y-27632 dihydrochloride for at least two passages prior to the screen. The established cell lines NCI-H1341 and […] were cultured in DMEM/F-12, HEPES (Invitrogen, cat. 11330032), 5% defined fetal bovine serum (HyClone Laboratories Inc., cat. SH30070.03), ITS premix universal culture supplement [insulin (5 microg/mL), transferrin (5 microg/mL), and selenious acid (5 ng/mL)] […]
# 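Note: spheroids exposed to compounds for seven days after three days of growth.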
structure (smiles),measurement,setting,value
CCc1c2c(nc3ccc(O)cc13)-c1cc3c(c(=O)n1C2)COC(=O)[C@]3(O)CC + CC(CO)NC(=O)c1cc(-c2ccc(Cl)cc2)nn(-c2cnn(C)c2)c1=O,IC50,second compound 0.1 µM,1.79 nM
same,IC50,second compound 0.316 µM,< 0.949 nM
same,IC50,second compound 1 µM,1.02 nM
same,IC50,second compound 3.16 µM,< 0.949 nM
same,IC50,second compound 10 µM,< 0.949 nM
same,"viability, T/C","second compound 0.1 µM, first compound 0.000949 µM",55.6%
same,"viability, T/C","second compound 0.1 µM, first compound 0.003 µM",46.4%
same,"viability, T/C","second compound 0.1 µM, first compound 0.00949 µM",20.9%
same,"viability, T/C","second compound 0.1 µM, first compound 0.03 µM",12.4%
same,"viability, T/C","second compound 0.1 µM, first compound 0.0949 µM",5.44%
same,"viability, T/C","second compound 0.1 µM, first compound 0.3 µM",3.22%
same,"viability, T/C","second compound 0.316 µM, first compound 0.000949 µM",49.2%
same,"viability, T/C","second compound 0.316 µM, first compound 0.003 µM",42%
same,"viability, T/C","second compound 0.316 µM, first compound 0.00949 µM",22.7%
same,"viability, T/C","second compound 0.316 µM, first compound 0.03 µM",12%
same,"viability, T/C","second compound 0.316 µM, first compound 0.0949 µM",6.1%
same,"viability, T/C","second compound 0.316 µM, first compound 0.3 µM",3.45%
same,"viability, T/C","second compound 1 µM, first compound 0.000949 µM",49.8%
same,"viability, T/C","second compound 1 µM, first compound 0.003 µM",43.3%
same,"viability, T/C","second compound 1 µM, first compound 0.00949 µM",21.9%
same,"viability, T/C","second compound 1 µM, first compound 0.03 µM",12.9%
same,"viability, T/C","second compound 1 µM, first compound 0.0949 µM",7.22%
same,"viability, T/C","second compound 1 µM, first compound 0.3 µM",3.97%
same,"viability, T/C","second compound 3.16 µM, first compound 0.000949 µM",44.4%
same,"viability, T/C","second compound 3.16 µM, first compound 0.003 µM",32.9%
same,"viability, T/C","second compound 3.16 µM, first compound 0.00949 µM",21.2%
same,"viability, T/C","second compound 3.16 µM, first compound 0.03 µM",11.3%
same,"viability, T/C","second compound 3.16 µM, first compound 0.0949 µM",6.34%
same,"viability, T/C","second compound 3.16 µM, first compound 0.3 µM",3.5%
same,"viability, T/C","second compound 10 µM, first compound 0.000949 µM",38.2%
same,"viability, T/C","second compound 10 µM, first compound 0.003 µM",31.2%
same,"viability, T/C","second compound 10 µM, first compound 0.00949 µM",20.5%
same,"viability, T/C","second compound 10 µM, first compound 0.03 µM",12%
same,"viability, T/C","second compound 10 µM, first compound 0.0949 µM",6.27%
same,"viability, T/C","second compound 10 µM, first compound 0.3 µM",4.4%
Nc1ccn(C2OC(CO)C(O)C2(F)F)c(=O)n1 (stereo not given) + CC(CO)NC(=O)c1cc(-c2ccc(Cl)cc2)nn(-c2cnn(C)c2)c1=O,IC50,second compound 0.1 µM,< 31.6 nM
same,IC50,second compound 0.316 µM,< 31.6 nM
same,IC50,second compound 1 µM,< 31.6 nM
same,IC50,second compound 3.16 µM,< 31.6 nM
same,IC50,second compound 10 µM,< 31.6 nM
same,"viability, T/C","second compound 0.1 µM, first compound 0.0316 µM",11.7%
same,"viability, T/C","second compound 0.1 µM, first compound 0.1 µM",10.2%
same,"viability, T/C","second compound 0.1 µM, first compound 0.316 µM",11.1%
same,"viability, T/C","second compound 0.1 µM, first compound 1 µM",11.1%
same,"viability, T/C","second compound 0.1 µM, first compound 3.16 µM",10.3%
same,"viability, T/C","second compound 0.1 µM, first compound 10 µM",6.84%
same,"viability, T/C","second compound 0.316 µM, first compound 0.0316 µM",11.8%
same,"viability, T/C","second compound 0.316 µM, first compound 0.1 µM",11.3%
same,"viability, T/C","second compound 0.316 µM, first compound 0.316 µM",9.79%
same,"viability, T/C","second compound 0.316 µM, first compound 1 µM",10.8%
same,"viability, T/C","second compound 0.316 µM, first compound 3.16 µM",11.9%
same,"viability, T/C","second compound 0.316 µM, first compound 10 µM",6.25%
same,"viability, T/C","second compound 1 µM, first compound 0.0316 µM",12%
same,"viability, T/C","second compound 1 µM, first compound 0.1 µM",11.8%
same,"viability, T/C","second compound 1 µM, first compound 0.316 µM",11.7%
same,"viability, T/C","second compound 1 µM, first compound 1 µM",11.1%
same,"viability, T/C","second compound 1 µM, first compound 3.16 µM",11.9%
same,"viability, T/C","second compound 1 µM, first compound 10 µM",7.23%
same,"viability, T/C","second compound 3.16 µM, first compound 0.0316 µM",12.2%
same,"viability, T/C","second compound 3.16 µM, first compound 0.1 µM",10.9%
same,"viability, T/C","second compound 3.16 µM, first compound 0.316 µM",12.2%
same,"viability, T/C","second compound 3.16 µM, first compound 1 µM",11%
same,"viability, T/C","second compound 3.16 µM, first compound 3.16 µM",10.5%
same,"viability, T/C","second compound 3.16 µM, first compound 10 µM",6.81%
same,"viability, T/C","second compound 10 µM, first compound 0.0316 µM",14.2%
same,"viability, T/C","second compound 10 µM, first compound 0.1 µM",12.8%
same,"viability, T/C","second compound 10 µM, first compound 0.316 µM",11.9%
same,"viability, T/C","second compound 10 µM, first compound 1 µM",11.6%
same,"viability, T/C","second compound 10 µM, first compound 3.16 µM",10.3%
same,"viability, T/C","second compound 10 µM, first compound 10 µM",8.31%
